The results in this text go back to PMC11396935, “Exploration of Compounds with 2-Phenylbenzo[d]oxazole Scaffold as Potential Skin-Lightening Agents through Inhibition of Melanin Biosynthesis and Tyrosinase Activity” (Molecules, 2024).

Where two headings read alike, the source gives them in different places.

The target in one assay is T1, mushroom tyrosinase (Agaricus bisporus, UniProt C7FF04).
T1 construct: purchased Sigma-Aldrich (St. Louis, MO, USA)
The assay is described as follows: Mushroom tyrosinase activity inhibition assay (L-tyrosine or L-dopa as substrate). The class given is biochemical. Conditions: mushroom tyrosinase, 37 °C, mean ± SEM of triplicates. On the procedure:
3.3. Tyrosinase Activity Assay Using Mushroom Tyrosinase
The tyrosinase inhibitory activity of the 2-phenylbenzoxazoles was evaluated using a mushroom tyrosinase activity assay, following a previously described method. An aqueous substrate mixture, consisting of phosphate buffer (pH 6.5; 17.2 mM) and L-tyrosine or L-dopa (345 μM), was prepared. A 96-well plate containing the test sample in dimethyl sulfoxide (DMSO) solution (10 μL), aqueous mushroom tyrosinase solution (20 μL; 200 units), and aqueous substrate mixture (170 μL) in each well was incubated at 37 °C for 15 min for L-dopa and 30 min for L-tyrosine, respectively.

Assay [1] can be described thus: ABTS radical cation scavenging assay. The settings on record: 100 μM. On the procedure: For ABTS^+• scavenging experiments, ABTS^+• was generated by oxidizing ABTS using potassium persulfate. All test samples (Trolox [TR; positive material] and 1–15) were used at a final concentration of 100 μM. […] Both compounds share a common catechol structure. […] Similar results were obtained in the DPPH radical scavenging experiment. […] Compounds 4, 9, and 14, bearing a 4-hydroxy-3-methoxyphenyl, scavenged ABTS^+• moderately (23–51%).
3.15. 2,2′-Azino-bis(3-ethylbenzothiazoline-6-sulfonic Acid) (ABTS) Radical Cation Scavenging Assay
The effect of the 2-phenylbenzoxazole compounds 1–15 on radical scavenging was assessed using an ABTS assay, as previously reported. An ABTS aqueous solution (7 mM) was mixed with a K2S2O8 aqueous solution (2.45 mM) in equal volumes (each 20 mL) and incubated in the dark for 20 h at 25 °C to generate ABTS^+•. The ABTS^+• solution was then diluted with pure EtOH to adjust the absorbance of the solution to 0.7 ± 0.02 at 730 nm. The test samples (1–15 and Trolox [positive control]) were dissolved in a co-solvent of EtOH and DMSO (9:1, v/v) to make a 1 mM solution. The diluted ABTS^+• solution was mixed with the test sample solution at a volume ratio of 9:1 (90 μL:10 μL) and the mixture was stored for 2 min at 20 °C in the dark. The optical density was measured at 730 nm using an ELISA reader at 1 min intervals for 10 min. All test samples were used at a final concentration of 100 µM.
ABTS^+• radical scavenging activity (%) = [(ODcon − ODsam)/ODcon] × 100, where ODsam and ODcon represent the absorbances of the test sample and the control, respectively.

Assay [2] in a line: ROS scavenging assay (SIN-1/DCFH). The settings on record: 40 μM; SIN-1 10 μM; 30 min. On the procedure:
For ROS scavenging experiments, test samples (1–15 and Trolox [positive control]; 40 μM) containing 3-morpholinosydnonimine (SIN-1; 10 μM) were mixed with a 2′,7′-dichlorodihydrofluorescein (DCFH) solution. After 30 min, the ROS scavenging activity of the test samples was assessed.
3.16. Reactive Oxygen Species (ROS) Scavenging Assay
The ability of compounds 1–15 to remove ROS was assayed as previously reported. […] A 3-morpholinosydnonimine (SIN-1) solution (10 μL, 250 μM) and phosphate buffer (180 μL) were mixed with a test sample (1–15; 10 μL, 1 mM) in DMSO solution or Trolox (10 μL, 1 mM; positive control) in each well of a 96-well black plate and left in the dark 25 °C for 5 min. The SIN-1-test sample mixture was then combined with the generated DCFH solution (50 μL). Fluorescence was measured in 5 min intervals for 30 min at 530 nm using a microplate reader (Berthold Advances GmbH & Co., Bad Wildbad, Germany) with excitation at 485 nm.

Assay [3] is described as follows: DPPH radical scavenging assay. Conditions: 500 μM, 30 min in the dark. On the procedure: The DPPH radical scavenging activity was assessed by mixing DPPH solution with compounds 1–15 and incubating them in the dark for 30 min. All test samples were evaluated at 500 μM.
3.14. 2,2′-Diphenyl-1-picrylhydrazyl (DPPH) Radical Scavenging Assay
As previously reported, the ability of compounds 1–15 to remove DPPH radicals was evaluated. A 0.2 mM methanolic DPPH solution was mixed with a 5 mM L-ascorbic acid aqueous solution or 5 mM DMSO solution of 1–15 at a ratio of […] (v/v, 180 μL:20 μL) in each well of a 96-well microplate. After incubating the microplate in the dark for 30 min, the optical density of each well was measured at 517 nm using an ELISA reader. DPPH scavenging activity (%) = (OD[control] − OD[sample]) × 100/OD[control].
For orientation: The DPPH test is a chemical assay of radical scavenging.

Assay [4] deals with zebrafish larvae. The assay is described as follows: In vivo depigmentation experiment using zebrafish embryos. The settings on record: kojic acid 20 mM; compound 8 0.025 mM; compound 13 0.025 and 0.05 mM; 76 hpf.
Protocol: Zebrafish embryos were used in this study. […] The zebrafish embryos were obtained through natural mating in our laboratory. The chorion of the zebrafish embryos was removed 24 h post-fertilization (hpf).
In Vivo Depigmentation Experiment Using Zebrafish Embryos
A depigmentation experiment was performed using zebrafish embryos, as previously described [38, 49, 50]. Wild-type zebrafish (Danio rerio) were maintained in a fish tank at 28 °C and fed with dried brine shrimp (Artemia salina, San Francisco Bay Brand, San Francisco, CA, USA) three times daily. The zebrafish embryos were obtained through natural mating in mating cages. The obtained zebrafish embryos were transferred to a 90 mm culture dish containing 200 μL of E3-methylene blue (MB) solution, consisting of 0.001% MB, 0.17 mM KCl, 0.33 mM CaCl2, 0.33 mM MgSO4, and 5 mM NaCl, and incubated in an incubator set at 28 °C. At 24 h post-fertilization (hpf), the zebrafish embryos were dechorionated using pronase (Sigma-Aldrich, St. Louis, MO, USA). […] The 48-well plates were incubated in an incubator set at 28 °C for 48 h. At 76 hpf, the zebrafish larvae were mounted on a 1% methylcellulose block after anesthesia with tricaine methanesulfonate (Thermo Fisher Scientific, Waltham, MA, USA), and photographs of the zebrafish larvae were obtained using a SMZ745T stereoscopic microscope (Nikon, Tokyo, Japan). The pigmented areas of the zebrafish larvae were determined using the CS analyzer 3.0 image analysis software (ATTO, Tokyo, Japan).
Assay [5] deals with tyrosinase activity in zebrafish larvae. The assay is described as follows: Tyrosinase activity in zebrafish larvae. Conditions: compound 8 0.025 mM; kojic acid 20 mM; treated 28 hpf, read 74 hpf. The class given is in vivo, zebrafish (Danio rerio). On the procedure:
(§1) . Zebrafish embryos obtained by natural mating were dechorionated at 24 hpf and treated with compound 8 (0.025 mM) or kojic acid (20 mM) at 28 hpf. After 46 h, the melanin content and tyrosinase activity were determined.
(§2) 3.13. Measurement of Melanin Content and Tyrosinase Activity in Zebrafish Larvae
(§3) The effects of the 2-phenylbenzo[d]oxazole compound 8 on the melanin content and tyrosinase activity in the zebrafish larvae were assessed using a previously defined procedure with minor modifications. To quantify the melanin content in the zebrafish larvae, zebrafish embryos were obtained through natural mating and operated in a similar manner to the in vivo depigmentation experiment (25 zebrafish embryos per well in a 24-well plate; dechorionation at 24 hpf; test sample treatment (8 [0.025 mM] and kojic acid [20 mM; positive control]) at 28 hpf). Melanin quantification and tyrosinase activity were quantified at 74 hpf. For melanin quantification, the zebrafish larvae were lysed in RIPA buffer (Biosesang, Gyeonggi-do, Korea) and homogenized using a sonicator. […] The absorbance was measured at 405 nm using a microplate reader. For the tyrosinase activity measurement, the supernatants were transferred to new Eppendorf tubes and the protein was quantified using a Pierce BCA protein assay kit, with the absorbance being measured at 570 nm using a microplate reader. […]

Assay [6] relates to zebrafish larvae. The assay is described as follows: Melanin content in zebrafish larvae. The settings on record: compound 8 0.025 mM; kojic acid 20 mM; treated 28 hpf, read 74 hpf. The class given is in vivo, zebrafish (Danio rerio). On the procedure: as §1, §2, §3
The test system of assay [7] is B16F10 tyrosinase in situ. Conditions: compounds 1, 2, 5 μM; kojic acid 5 μM; α-MSH + IBMX 72 h; excess L-dopa.
Protocol: To evaluate the effect of the compounds on in situ tyrosinase activity, an experiment using B16F10 cells was performed as previously described [34, 35]. […] Excess L-dopa was added to increase their melanin production prior to the acquisition of cell images.
In Situ Tyrosinase Activity Assay Using B16F10 Cells and L-dopa
In situ tyrosinase activity was measured in B16F10 cells using L-dopa, as reported previously [34]. […] The cells were processed as follows: (1) fixing with 4% paraformaldehyde for 40 min, (2) washing with PBS, and (3) permeabilizing with 0.1% Triton X-100 for 2 min. After washing with PBS, the cells were stained with L-dopa (2 mM; 500 μL) at 37 °C for 2 h. Stained images were collected using a camera connected to a microscope (Motic, Hong Kong).
Where [8] appears, read: substrate L-dopa, 15 min, read-out: IC50 Values, L-Dopa.
The mark [9] stands for this setting: substrate L-tyrosine, 30 min, read-out: IC50 Values, L-Tyrosine.

T1 sequence (C7FF04 1-392 limits assumed): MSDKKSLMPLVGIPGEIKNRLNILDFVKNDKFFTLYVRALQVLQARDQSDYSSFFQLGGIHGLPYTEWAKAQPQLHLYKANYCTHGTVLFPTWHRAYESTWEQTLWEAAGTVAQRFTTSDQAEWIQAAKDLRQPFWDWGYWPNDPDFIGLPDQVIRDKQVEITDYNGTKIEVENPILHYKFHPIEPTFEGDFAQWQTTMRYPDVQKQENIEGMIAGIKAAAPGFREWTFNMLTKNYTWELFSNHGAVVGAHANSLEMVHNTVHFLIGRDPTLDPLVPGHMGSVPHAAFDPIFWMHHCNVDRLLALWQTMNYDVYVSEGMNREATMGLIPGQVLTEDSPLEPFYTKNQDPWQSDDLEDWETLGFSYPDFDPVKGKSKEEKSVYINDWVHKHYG

What is called IC50 is the midpoint of a concentration-inhibition curve. `Cc1ccc2nc(-c3ccc(O)cc3)oc2c1` [Compound 1, 4-(6-Methylbenzo[d]oxazol-2-yl)phenol]: the IC50 on mushroom tyrosinase (setting [8]) is greater than 200 µM; on mushroom tyrosinase (setting [9]) it was 153 ± 14.3 µM.

Turning to `COc1ccc(-c2nc3ccc(C)cc3o2)c(OC)c1` [Compound 2, 2-(2,4-Dimethoxyphenyl)-6-methylbenzo[d]oxazole], the “ABTS+• scavenging activity (% inhibition)” value in assay [1] was “less than 5%”. In addition, the IC50 on mushroom tyrosinase (setting [8]) and at mushroom tyrosinase (setting [9]) was greater than 200 µM throughout.

Regarding `COc1ccc(-c2nc3ccc(C)cc3o2)cc1O` [Compound 4, 2-Methoxy-5-(6-methylbenzo[d]oxazol-2-yl)phenol], the IC50 on mushroom tyrosinase (setting [8]) and at mushroom tyrosinase (setting [9]) was greater than 200 µM in each case.

With `Cc1ccc2nc(-c3ccc(O)c(O)c3)oc2c1` [Compound 5, 4-(6-Methylbenzo[d]oxazol-2-yl)benzene-1,2-diol], in assay [1], the “ABTS+• scavenging activity (% inhibition)” value amounted to 13%. For the same compound, the ROS scavenging activity result in assay [2] is “strong ROS scavenging efficacy”. The “DPPH radical scavenging activity (in words)” value in assay [3] is “weak DPPH radical scavenging effect”. In addition, the IC50 on mushroom tyrosinase (setting [8]) stood at 187 ± 30.3 µM; on mushroom tyrosinase (setting [9]), 144 ± 3.1 µM.

For the compound `Oc1ccc(-c2nc3ccc(Cl)cc3o2)cc1` [Compound 6, 4-(6-Chlorobenzo[d]oxazol-2-yl)phenol], the figures for the IC50 at mushroom tyrosinase (setting [8]) and at mushroom tyrosinase (setting [9]) were greater than 200 µM and 57.5 ± 8.78 µM, respectively.

As for `COc1ccc(-c2nc3ccc(Cl)cc3o2)c(OC)c1` [Compound 7, 6-Chloro-2-(2,4-dimethoxyphenyl)benzo[d]oxazole], in assay [1], the “ABTS+• scavenging activity (% inhibition)” value is reported as “less than 5%”. Also, the IC50 on mushroom tyrosinase (setting [8]) and at mushroom tyrosinase (setting [9]) was greater than 200 µM each time.

As for `COc1ccc(-c2nc3ccc(Cl)cc3o2)cc1O` [Compound 9, 5-(6-Chlorobenzo[d]oxazol-2-yl)-2-methoxyphenol], the IC50 on mushroom tyrosinase (setting [8]) and at mushroom tyrosinase (setting [9]) was greater than 200 µM throughout.

For the compound `Oc1ccc(-c2nc3ccc(Cl)cc3o2)cc1O` [Compound 10, 4-(6-Chlorobenzo[d]oxazol-2-yl)benzene-1,2-diol], in assay [1], the “ABTS+• scavenging activity (% inhibition)” value was 81%. Also, the ROS scavenging activity result in assay [2] is on record as “strong to moderate ROS-scavenging activity”. In assay [3], the “DPPH radical scavenging activity” value is 86%. The IC50 on mushroom tyrosinase (setting [8]) is greater than 200 µM; at mushroom tyrosinase (setting [9]), 59 ± 4.74 µM.

For `Cc1ccc2oc(-c3ccc(O)cc3)nc2c1` [Compound 11, 4-(5-Methylbenzo[d]oxazol-2-yl)phenol], the IC50 on mushroom tyrosinase (setting [8]) was greater than 200 µM; at mushroom tyrosinase (setting [9]), 76.8 ± 3.84 µM.

As for `COc1ccc(-c2nc3cc(C)ccc3o2)c(OC)c1` [Compound 12, 2-(2,4-Dimethoxyphenyl)-5-methylbenzo[d]oxazole], in assay [1], the “ABTS+• scavenging activity (% inhibition)” value is reported as “less than 5%”. Besides, the IC50 at mushroom tyrosinase (setting [8]) and on mushroom tyrosinase (setting [9]) was greater than 200 µM in each case.

For `COc1ccc(-c2nc3cc(C)ccc3o2)cc1O` [Compound 14, 2-Methoxy-5-(5-methylbenzo[d]oxazol-2-yl)phenol], the IC50 at mushroom tyrosinase (setting [8]) was greater than 200 µM; at mushroom tyrosinase (setting [9]) it was 146 ± 16.4 µM.

On to `Cc1ccc2oc(-c3ccc(O)c(O)c3)nc2c1` [Compound 15, 4-(5-Methylbenzo[d]oxazol-2-yl)benzene-1,2-diol], for which, in assay [1], the “ABTS+• scavenging activity (% inhibition)” value was found to be 83%. Further, in assay [2], the ROS scavenging activity result is “strong ROS scavenging efficacy comparable to that of Trolox”. Also, in assay [3], the “DPPH radical scavenging activity” value is given as 86%. The IC50 is greater than 200 µM on mushroom tyrosinase (setting [8]) and 80.3 ± 5.24 µM on mushroom tyrosinase (setting [9]).

Regarding `O=C1O[C@H]([C@@H](O)CO)C(O)=C1O` [L-ascorbic acid, reference compound], the “DPPH radical scavenging activity” value in assay [3] was 96%.

As to `Cc1c(C)c2c(c(C)c1O)CCC(C)(C(=O)O)O2` (centres unmarked) [Trolox, reference compound], in assay [1], the “ABTS+• scavenging activity (% inhibition)” value stood at 99%. Further, the ROS scavenging activity entry in assay [2] was “most potent ROS scavenging activity”.

In the case of `O=c1cc(CO)occ1O` [kojic acid, Kojic acid, reference compound], in the assay on zebrafish larvae [4], the “depigmentation effect on zebrafish larvae (photographs)” value is on record as “reduced pigmentation in all regions except the eyes” and the “pigmentation area of zebrafish larvae (CS analyzer)” value is reported as “decreased the pigmentation area compared to the control”. For the same compound, the “% tyrosinase activity in zebrafish larvae, vs untreated control (100%)” value in assay [5] was determined as 57%. Also, in the assay on zebrafish larvae [6], the “melanin content of zebrafish larvae, vs untreated control (100%)” value amounted to 53%. Also, in assay [7], the “melanin formation, in situ tyrosinase activity in B16F10 cells” value is reported as “markedly decreased melanin formation”.
